Legend:
[1] = molecular target: T1, WT mPIEZO1 (Mus musculus, UniProt E2JF22); experiment: Long substance exposure and hypo-osmolality protocol Ca2+ assay; format: cell-based; conditions: 10 μM, 20-min exposure, hypotonic assay
T1 construct: expressed in transfected cells
Experimental: (§1) For intracellular Ca^2+ assays, cells were plated at 80–90% confluence in 96-well plates 24 h prior to recordings (6–8 × 10^4 cells per well). […] Cells were washed with SBS and incubated at room temperature for 20 min prior to recordings. Equal volumes of 2x concentrated compounds were injected to test for acute channel activation. Pre-incubation with compounds occurred during the 20 min prior to recordings. To expose cell membranes to hypo-osmolality, an equal volume of hypotonic SBS (containing only 35 mM NaCl) was injected onto the cells. Measurements were made on a fluorescence plate reader (Flexstation III, Molecular Devices) at room temperature (21 ± 2°C). Fura-2 was excited at 340 nm and 380 nm and emitted light collected at 510 nm, with measurements shown as the change in fluorescence (F) ratio (ΔF340/380).
SI Figure S5: Hypo-osm ol al it y test in the Ca2+ assay, referred to in the main paper
(a) Typical 96-well plate mean ± s.e.m. data for changes in intracellular Ca2+ evoked by hypotonic (35 mM NaCl) or normotonic (135 mM NaCl) medium for WT- or Empty vector-transfected cells in increasing concentrations of Yoda1 as indicated and colour -coded on t he right (representative of n = 3-6 independent experiments). […]

[2] = molecular target: T2, G1978D hPIEZO1 (Homo sapiens, UniProt Q92508, G1978D); experiment: Intracellular Ca2+ measurement (fura-2), T-REx-293 cells transiently transfected; format: cell-based; conditions: 1 μM Y1, versus WT
T2 construct: expressed in transfected cells; host or cells: T-REx-293 (modified HEK293), transient
Experimental: HEK 293 cell line was transiently transfected at 90% confluence using Lipofectamine 2000 (Invitrogen) in OptiMEM (Gibco). Briefly: 500 ng endotoxin-free DNA per 100μL OptiMEM was prepared alongside 3μL Lipofectamine 2000 per 100μL OptiMEM (Gibco). Both were incubated for 5 min and then mixed, and then incubated at room temperature (21°C–24°C) for 20–30 min. Finally, the transfection mix was gently added dropwise to the cells and the cells were placed in a humidified incubator at 37°C supplied with 5% CO2 for 5 h. Medium was replaced afterward, and cells were used for experimentation 48 h after transfection.
as §1
KC41 (Dooku1) was prepared as described.[28] All purchased chemicals and solvents were used without further purification unless otherwise stated. All compounds were at least 95% pure by 1H NMR. 1H Nuclear Magnetic Resonance spectra were recorded at 500 MHz using a Bruker DRX 500 instrument or at 400 MHz using a Bruker DPX 400. 1H spectra are referenced based on the residual proton in the solvent (e.g., the CHCl3, 0.01% in 99.99% CDCl3). Coupling constants (J) are reported to the nearest 0.1 Hz. 13C NMR spectra were recorded at 125 MHz on 500 MHz spectrometers or at 100 MHz on 400 MHz spectrometers. LC-MS was performed on a Bruker Daltronics running a gradient of increasing acetonitrile (5–95%) in H2O both containing 0.1% formic acid at 1 mL.min^−1, on a short path C18 reverse phase column, detecting compounds with both a diode array detector and a Bruker mass spectrum analyser. HRMS was performed on a Bruker Daltonics micrOTOF using positive electrospray ionisation (ES+). Automated column chromatograph was carried out using a Biotage Isolera Four, using either Sfär Silica D or KP-Silica cartridges. HPLC was performed on an Agilent 1290 Infinity Series equipped with a UV detector and Hyperprep C18 reverse phase column. Key to NMR abbreviations: s (singlet), br s (broad singlet) d (doublet), dd (doublet of doublets), ddd (doublet of doublets of doublets), t (triplet), dt (doublet of triples), q (quartet), m (multiplet), ap. t (apparent triplet). For experiments, Yoda1 and its analogues were prepared as 10 mM stock solutions in 100% dimethyl sulfoxide (DMSO) before serial dilution in DMSO and final dilution in aqueous solution. Cells were exposed to 0.1% DMSO for all concentrations of the compounds from 0 to 10 μM.

T1 sequence (E2JF22 whole entry): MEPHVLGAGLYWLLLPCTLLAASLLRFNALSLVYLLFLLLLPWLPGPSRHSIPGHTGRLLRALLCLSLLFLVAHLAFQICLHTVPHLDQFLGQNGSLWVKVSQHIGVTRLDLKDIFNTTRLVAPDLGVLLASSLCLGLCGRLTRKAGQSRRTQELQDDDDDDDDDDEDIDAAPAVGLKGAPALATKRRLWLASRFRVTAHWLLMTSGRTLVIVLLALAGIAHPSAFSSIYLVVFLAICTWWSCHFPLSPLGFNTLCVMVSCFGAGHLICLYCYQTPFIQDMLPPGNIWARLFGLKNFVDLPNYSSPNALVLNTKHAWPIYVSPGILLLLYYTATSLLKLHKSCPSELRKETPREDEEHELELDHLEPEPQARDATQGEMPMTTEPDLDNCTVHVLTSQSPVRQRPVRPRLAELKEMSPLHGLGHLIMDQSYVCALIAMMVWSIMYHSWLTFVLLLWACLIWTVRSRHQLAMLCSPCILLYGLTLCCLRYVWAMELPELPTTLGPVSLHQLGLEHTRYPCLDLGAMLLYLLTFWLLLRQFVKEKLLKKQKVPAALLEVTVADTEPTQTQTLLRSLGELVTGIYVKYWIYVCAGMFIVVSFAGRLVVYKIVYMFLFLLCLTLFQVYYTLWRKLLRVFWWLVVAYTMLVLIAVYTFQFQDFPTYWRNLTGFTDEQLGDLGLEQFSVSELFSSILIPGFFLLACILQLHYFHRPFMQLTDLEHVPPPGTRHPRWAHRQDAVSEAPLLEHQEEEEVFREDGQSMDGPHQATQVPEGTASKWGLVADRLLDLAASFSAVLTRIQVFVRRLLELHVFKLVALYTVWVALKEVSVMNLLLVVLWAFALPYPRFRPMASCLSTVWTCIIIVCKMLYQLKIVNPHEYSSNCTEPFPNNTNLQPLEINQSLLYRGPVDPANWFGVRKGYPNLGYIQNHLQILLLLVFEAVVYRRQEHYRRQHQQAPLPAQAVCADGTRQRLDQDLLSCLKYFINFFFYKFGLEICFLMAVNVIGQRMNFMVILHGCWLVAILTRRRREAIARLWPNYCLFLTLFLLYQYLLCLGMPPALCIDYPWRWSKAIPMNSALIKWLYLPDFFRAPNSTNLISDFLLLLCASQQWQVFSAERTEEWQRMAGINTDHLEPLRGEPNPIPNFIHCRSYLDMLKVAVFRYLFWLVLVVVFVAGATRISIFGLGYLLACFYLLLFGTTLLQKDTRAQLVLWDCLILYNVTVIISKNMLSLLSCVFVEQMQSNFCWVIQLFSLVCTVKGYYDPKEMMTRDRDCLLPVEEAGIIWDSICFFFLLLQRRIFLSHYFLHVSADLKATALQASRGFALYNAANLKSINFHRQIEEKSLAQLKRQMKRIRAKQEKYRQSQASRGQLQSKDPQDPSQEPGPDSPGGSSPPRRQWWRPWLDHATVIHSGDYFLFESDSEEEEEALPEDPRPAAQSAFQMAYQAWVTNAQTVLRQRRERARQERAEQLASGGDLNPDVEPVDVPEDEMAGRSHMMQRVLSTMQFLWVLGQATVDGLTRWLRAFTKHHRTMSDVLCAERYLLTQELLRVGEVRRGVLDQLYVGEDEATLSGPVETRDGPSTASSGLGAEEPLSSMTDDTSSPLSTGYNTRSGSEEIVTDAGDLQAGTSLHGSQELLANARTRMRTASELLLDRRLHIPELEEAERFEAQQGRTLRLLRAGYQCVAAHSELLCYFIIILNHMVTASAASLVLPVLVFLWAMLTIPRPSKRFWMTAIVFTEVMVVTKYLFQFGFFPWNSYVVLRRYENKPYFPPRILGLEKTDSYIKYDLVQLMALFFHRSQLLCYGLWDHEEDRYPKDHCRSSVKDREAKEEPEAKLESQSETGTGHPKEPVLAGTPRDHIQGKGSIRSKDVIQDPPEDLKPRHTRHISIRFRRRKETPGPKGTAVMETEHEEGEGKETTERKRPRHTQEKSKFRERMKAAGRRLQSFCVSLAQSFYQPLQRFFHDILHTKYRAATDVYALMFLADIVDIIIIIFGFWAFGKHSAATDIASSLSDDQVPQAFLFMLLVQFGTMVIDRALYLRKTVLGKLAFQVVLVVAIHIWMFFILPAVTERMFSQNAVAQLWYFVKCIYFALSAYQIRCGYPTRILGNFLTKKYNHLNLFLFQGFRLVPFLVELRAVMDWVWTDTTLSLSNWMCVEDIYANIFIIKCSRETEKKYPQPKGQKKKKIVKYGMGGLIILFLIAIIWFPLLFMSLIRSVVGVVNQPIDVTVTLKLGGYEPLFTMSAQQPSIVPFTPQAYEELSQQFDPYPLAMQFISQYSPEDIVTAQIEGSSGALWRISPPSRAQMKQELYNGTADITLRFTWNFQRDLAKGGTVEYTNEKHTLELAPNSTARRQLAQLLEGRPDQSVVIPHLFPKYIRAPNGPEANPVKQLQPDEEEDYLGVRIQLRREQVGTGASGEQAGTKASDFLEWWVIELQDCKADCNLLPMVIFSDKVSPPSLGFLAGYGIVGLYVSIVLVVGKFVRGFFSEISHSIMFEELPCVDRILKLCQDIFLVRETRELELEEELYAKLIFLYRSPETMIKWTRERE
T2 sequence (Q92508 whole entry G1978D): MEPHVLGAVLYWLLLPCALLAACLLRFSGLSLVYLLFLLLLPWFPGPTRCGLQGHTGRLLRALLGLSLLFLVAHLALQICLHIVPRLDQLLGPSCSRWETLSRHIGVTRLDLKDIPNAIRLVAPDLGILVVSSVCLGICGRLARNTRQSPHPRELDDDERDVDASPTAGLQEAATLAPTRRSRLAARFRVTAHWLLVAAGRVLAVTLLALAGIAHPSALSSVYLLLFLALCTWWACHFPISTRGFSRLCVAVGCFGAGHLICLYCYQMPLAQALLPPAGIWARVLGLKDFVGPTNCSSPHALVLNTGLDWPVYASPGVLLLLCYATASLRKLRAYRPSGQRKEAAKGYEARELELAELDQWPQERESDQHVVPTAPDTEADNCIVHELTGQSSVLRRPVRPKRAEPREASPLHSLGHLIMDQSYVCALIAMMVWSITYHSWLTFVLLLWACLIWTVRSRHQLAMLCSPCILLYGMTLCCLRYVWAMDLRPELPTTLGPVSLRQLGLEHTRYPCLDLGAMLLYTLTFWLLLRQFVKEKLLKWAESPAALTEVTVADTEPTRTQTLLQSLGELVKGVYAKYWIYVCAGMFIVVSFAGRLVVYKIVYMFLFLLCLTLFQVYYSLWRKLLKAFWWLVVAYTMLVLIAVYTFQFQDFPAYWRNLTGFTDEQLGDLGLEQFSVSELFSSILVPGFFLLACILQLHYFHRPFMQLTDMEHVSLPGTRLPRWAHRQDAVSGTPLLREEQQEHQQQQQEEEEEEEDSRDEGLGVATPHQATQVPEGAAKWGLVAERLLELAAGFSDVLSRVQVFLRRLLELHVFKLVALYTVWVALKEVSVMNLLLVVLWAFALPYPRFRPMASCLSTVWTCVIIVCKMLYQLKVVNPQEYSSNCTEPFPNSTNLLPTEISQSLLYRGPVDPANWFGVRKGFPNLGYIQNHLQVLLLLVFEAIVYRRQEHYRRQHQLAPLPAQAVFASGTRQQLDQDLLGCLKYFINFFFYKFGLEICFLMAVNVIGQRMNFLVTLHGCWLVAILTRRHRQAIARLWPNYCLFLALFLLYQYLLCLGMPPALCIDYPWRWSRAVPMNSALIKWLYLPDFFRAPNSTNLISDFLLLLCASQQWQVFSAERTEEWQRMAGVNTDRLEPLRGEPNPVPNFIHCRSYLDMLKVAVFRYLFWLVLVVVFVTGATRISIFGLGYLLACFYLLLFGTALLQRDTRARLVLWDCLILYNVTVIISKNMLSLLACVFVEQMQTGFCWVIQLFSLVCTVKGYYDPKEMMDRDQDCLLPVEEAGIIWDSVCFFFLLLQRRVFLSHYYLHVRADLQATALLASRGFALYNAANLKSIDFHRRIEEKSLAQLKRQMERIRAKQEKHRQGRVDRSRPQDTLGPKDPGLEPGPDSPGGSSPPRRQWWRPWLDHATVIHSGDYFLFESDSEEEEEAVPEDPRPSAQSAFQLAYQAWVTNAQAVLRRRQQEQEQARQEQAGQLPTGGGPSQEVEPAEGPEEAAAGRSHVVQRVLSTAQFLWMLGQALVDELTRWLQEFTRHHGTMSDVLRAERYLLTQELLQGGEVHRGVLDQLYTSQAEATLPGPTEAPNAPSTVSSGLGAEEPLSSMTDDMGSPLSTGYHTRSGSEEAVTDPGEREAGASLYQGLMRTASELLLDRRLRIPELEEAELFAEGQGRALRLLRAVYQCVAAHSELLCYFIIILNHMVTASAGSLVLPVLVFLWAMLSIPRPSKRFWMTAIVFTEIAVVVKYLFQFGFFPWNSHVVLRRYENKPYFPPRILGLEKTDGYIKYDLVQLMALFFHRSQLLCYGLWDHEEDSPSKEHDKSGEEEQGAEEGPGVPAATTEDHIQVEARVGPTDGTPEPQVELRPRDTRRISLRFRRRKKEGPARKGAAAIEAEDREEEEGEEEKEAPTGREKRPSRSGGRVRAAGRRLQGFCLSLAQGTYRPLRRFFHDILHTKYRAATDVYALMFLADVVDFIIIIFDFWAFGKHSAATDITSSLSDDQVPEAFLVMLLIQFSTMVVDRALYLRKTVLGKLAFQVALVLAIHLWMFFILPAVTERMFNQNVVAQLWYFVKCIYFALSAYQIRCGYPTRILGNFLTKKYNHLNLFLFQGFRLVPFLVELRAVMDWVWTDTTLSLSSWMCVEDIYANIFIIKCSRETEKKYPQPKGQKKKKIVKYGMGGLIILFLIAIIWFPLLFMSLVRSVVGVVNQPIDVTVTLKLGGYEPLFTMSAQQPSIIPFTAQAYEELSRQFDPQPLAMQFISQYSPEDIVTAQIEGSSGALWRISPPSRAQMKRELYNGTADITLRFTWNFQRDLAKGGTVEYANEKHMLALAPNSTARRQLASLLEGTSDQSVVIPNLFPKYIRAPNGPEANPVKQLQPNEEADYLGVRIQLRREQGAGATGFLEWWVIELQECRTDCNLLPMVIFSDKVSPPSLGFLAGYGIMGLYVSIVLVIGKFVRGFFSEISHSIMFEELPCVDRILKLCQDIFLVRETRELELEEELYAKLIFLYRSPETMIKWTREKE

O=C(O)c1ccc(-c2cnc(SCc3c(Cl)cccc3Cl)s2)cc1 [Yoda2b, 4-(2-([(2,6-Dichlorophenyl)methyl]sulfanyl)-1,3-thiazol-5-yl)benzoic acid]
more effective than Yoda1 under the hypotonic condition [1]: about 25%

Clc1cccc(Cl)c1CSc1nnc(-c2cnccn2)s1 [Yoda1]
Effect on hPIEZO1 channel function [2]: reduced 1 μM Y1 effect

— article PMC12337661, “PIEZO1 mechanical insensitivity in generalized lymphatic dysplasia with the potential for pharmacological rescue” (iScience, 2025)
